For eight compounds, IC50 results are on record in US20250108123A1, “COMPOUND-LINKER […] COMPOUNDS USEFUL AS STING AGONISTS AND USES THEREOF” (priority 2021, published 2025).

The assay deals with human STING WT (Homo sapiens (Human), UniProt Q86WV6). The assay is described as follows: biochemical. It is filed as binding. How it is done:
Cisbio Bioassays' human STING WI binding assay (#64BDSTGPEG & 64BDSTGPEH, Cisbio) is for quantitative measurement of human STING WI ligand using HTRF® technology.
Negative control: Dispense 5 μL of diluent into each negative control well. Standard: Dispense 5 μL of each Human STING WI Standard 2′3′-cGAMP (Std 0-Std 7) into each standard well. Compound: Dispense 5 μL of compound into each compound well.
Negative control: Add 5 μL of detection buffer to all wells. Other wells: Add 5 μL of human STING WT protein 6His-tagged protein to all wells.
Add 10 μL of premixed STING WT ligand d2 reagent and 6His Tb antibody working solution to all wells.
Seal the plate and incubate 3 hours at RT or at Over Night if necessary.
Remove the plate sealer and read on an HTRF® compatible reader (PerkinElmer, USA). Results were analyzed with a two-wavelength signal ratio: intensity (665 nm)/intensity (620 nm).
Cisbio Bioassays' human STING WT binding assay (#64BDSTGPEG & 64BDSTGPEH, Cisbio) is for quantitative measurement of human STING WT ligand using HTRF® technology.
Negative control: Dispense 5 μL of diluent into each negative control well. Standard: Dispense 5 μL of each Human STING WT Standard 2′3′-cGAMP (Std 0—Std 7) into each standard well. Compound: Dispense 5 μL of compound into each compound well.
[formula] • Fit the data in GraphPad to obtain IC50 values using equation (2)

Where [1] appears, read: human STING WT, HTRF binding assay, read-out: hSTING WT binding IC50.
[2] abbreviates: HTRF, human STING WT 6His-tagged protein, incubation 3 hours at RT, read-out: hSTING WT binding IC50/nM.

Structures are written as SMILES. Like-named read-outs stand apart in the source and are kept apart here.

Sequence of human STING WT (Q86WV6 whole entry): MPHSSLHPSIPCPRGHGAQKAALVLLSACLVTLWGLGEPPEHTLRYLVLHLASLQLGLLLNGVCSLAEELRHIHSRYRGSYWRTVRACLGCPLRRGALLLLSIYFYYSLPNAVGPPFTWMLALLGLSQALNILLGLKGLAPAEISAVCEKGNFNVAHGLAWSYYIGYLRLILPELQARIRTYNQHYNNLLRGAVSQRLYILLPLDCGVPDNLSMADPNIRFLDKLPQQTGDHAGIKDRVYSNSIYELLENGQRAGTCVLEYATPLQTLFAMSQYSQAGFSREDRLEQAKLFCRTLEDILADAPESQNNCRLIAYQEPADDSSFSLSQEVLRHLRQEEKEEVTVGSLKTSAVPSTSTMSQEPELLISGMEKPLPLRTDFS

For `C=C(COc1c(OC)cc2c(c1Cl)CN(C(=O)CCC(=O)O)C2)COc1c(OC)cc2sc(C(=O)CCC(=O)O)cc2c1F` [II-16, 4-(5-((2-(((2-(3-carboxypropanoyl)-4-chloro-6-methoxyisoindolin-5-yl)oxy)methyl)allyl)oxy)-4-fluoro-6-methoxybenzo[b]thiophen-2-yl)-4-oxobutanoic acid], under setting [1], the IC50 is more than 150 nM. In the case of `COc1cc2c(cc1OCCCOc1cc3cc(C(=O)CCC(=O)O)sc3cc1O)CN(C(=O)CCC(=O)O)C2` [II-7, sodium 4-(5-(3-((2-(3-carboxylatopropanoyl)-6-hydroxybenzo[b]thiophen-5-yl)oxy)propoxy)-6-methoxyisoindolin-2-yl)-4-oxobutanoate], the IC50 was found to be 0.36 nM. `COc1cc2c(cc1OCCCOc1nc3cc(C(=O)CCC(=O)O)sc3cc1OC)CN(C(=O)CCC(=O)O)C2` [II-8, sodium 4-(5-(3-((2-(3-carboxylatopropanoyl)-6-methoxyisoindolin-5-yl)oxy)propoxy)-6-methoxythieno[3,2-b]pyridin-2-yl)-4-oxobutanoate]: under setting [1], the IC50 was determined as 1.04 nM.

For the compound `COc1cc2c(cc1OCCCOc1c(OC)cc3c(c1Cl)CN(C(=O)CCC(=O)O)C3)CN(C(=O)CCC(=O)O)C2` [Example I-8, 4-(5-(3-((2-(3-carboxypropanoyl)-4-chloro-6-methoxyisoindolin-5-yl)oxy)propoxy)-6-methoxyisoindolin-2-yl)-4-oxobutanoic acid], the IC50 under setting [2] was more than 150 nM.

Consider `COc1cc2c(c(Cl)c1OCCCOc1c(OC)cc3c(c1Cl)CN(C(=O)CCC(=O)O)C3)CN(C(=O)CCC(=O)O)C2` [Example I-12, 4,4′-((propane-1,3-diylbis(oxy))bis(4-chloro-6-methoxyisoindoline-5,2-diyl))bis(4-oxobutanoic acid)], for which, under setting [2], the IC50 is more than 150 nM. The same measure, in the same setting: next, `COc1cc2c(cc1CN(C)Cc1cc3c(cc1OC)CN(C(=O)CCC(=O)O)C3)CN(C(=O)CCC(=O)O)C2` [Example I-7, 4,4′-(((methylazanediyl)bis(methylene))bis(6-methoxyisoindoline-5,2-diyl))bis(4-oxobutanoic acid)]: more than 150 nM.

The compound `COc1cc2c(cc1OCCCOc1cc3cc(C(=O)CCC(=O)O)sc3cc1Br)CN(C(=O)CCC(=O)O)C2` [II-9, 4-(5-(3-((6-bromo-2-(3-carboxypropanoyl)benzo[b]thiophen-5-yl)oxy)propoxy)-6-methoxyisoindolin-2-yl)-4-oxobutanoic acid] showed an IC50 of 0.65 nM. On to `C=C(COc1c(OC)cc2c(c1Cl)CN(C(=O)CCC(=O)O)C2)COc1c(OC)cc2c(c1Cl)CN(C(=O)CCC(=O)O)C2` [Example I-11, 4,4′-(((2-methylenepropane-1,3-diyl)bis(oxy))bis(4-chloro-6-methoxyisoindoline-5,2-diyl))bis(4-oxobutanoic acid)], for which, under setting [2], the IC50 was more than 150 nM.
